Tests used:
[1] = tested on: HCT-116; assay: Inhibition of human HCT116 clonogenicity after 7 days by crystal violet staining by densitometric analysis; assay type: functional
[2] = tested on: HCT-116; assay: Cell cycle arrest in human HCT116 cells assessed as accumulation at G1 phase at 20 uM after 48 hrs by flow cytometry (Rvb =45.27 %); assay type: functional
[3] = tested on: HCT-116; assay: Cell cycle arrest in human HCT116 cells assessed as accumulation at G2/M phase at 20 uM after 48 hrs by flow cytometry (Rvb =23.23 %); assay type: functional
[4] = tested on: HCT-116; assay: Antiproliferative activity against human HCT116 assessed as growth inhibition after 24 to 48 hrs by WST-8 assay; assay type: functional, cell-based
[5] = tested on: HCT-116; assay: Antiproliferative activity against human HCT116 assessed as growth inhibition at 5 to 40 uM hrs by WST-8 assay; assay type: functional, cell-based; conditions: TDE = time-dependent effect
[6] = tested on: HCT-116; assay: Cell cycle arrest in human HCT116 cells assessed as accumulation at S phase at 20 uM after 48 hrs by flow cytometry (Rvb =21.16 %); assay type: functional
[7] = tested on: HCT-116; assay: Cell cycle arrest in human HCT116 cells assessed as accumulation at sub-G1 phase at 20 uM after 48 hrs by flow cytometry (Rvb =7.90 %); assay type: functional

Compound	inhibition (INH) [1] [%]	further results
Cc1c(O)ccc2c(=O)c(-c3ccccc3)coc12	27.7	
COc1cc(C)c2c(=O)c(-c3ccccc3)coc2c1	55.3	
COc1ccc2c(=O)c(-c3ccccc3)coc2c1C	54	
COc1ccc(-c2coc3c(OC)c(OC)ccc3c2=O)cc1	70	
COc1ccc2c(=O)c(-c3ccc(Cl)cc3)coc2c1C	58.3	
COc1ccc(-c2coc3c(C)c(OC)ccc3c2=O)cc1	52.7	
COc1cc(OC)c2c(=O)c(-c3cccc(Cl)c3)coc2c1	82.7	
Cc1cc2occ(-c3ccc(Cl)cc3Cl)c(=O)c2cc1Cl	12.7	
COc1cc(OC)c2c(=O)c(-c3ccc(Br)cc3)coc2c1	13.7	
COc1cc(O)c2c(=O)c(-c3ccc(O)cc3)coc2c1 [PRUNETIN]	74	
COc1cc(OC)c2c(=O)c(-c3ccccc3Cl)coc2c1	63.3	
O=c1c(-c2ccc(O)cc2)coc2c(O)c(O)ccc12	64	
COc1cc2c(=O)c(-c3ccccc3)coc2cc1O	37.3	
COc1ccc2c(=O)c(-c3ccccc3)coc2c1	42	
COc1ccc(-c2coc3cc(O)c(OC)cc3c2=O)cc1 [CASTANIN]	4.3	
COc1ccc(-c2coc3cc(OC)c(OC)cc3c2=O)cc1OC	85.3	
COc1cc2occ(-c3ccccc3)c(=O)c2cc1OC	91.3	Activity [2]: 47.46%; Activity [3]: 14.34%; growth inhibition (GI) [4]: Dose-dependent effect; growth inhibition (GI) [5]: tde; Activity [6]: 14.97%; Activity [7]: 21.34%
Cc1c(O)ccc2c(=O)c(-c3ccc(Cl)cc3)coc12	46.3	
COc1ccc2c(=O)c(-c3ccc(OC)c(OC)c3)coc2c1	35.7	
COc1cc2occ(-c3ccccc3Cl)c(=O)c2cc1Cl	5.3	
COc1cc2c(=O)c(-c3ccc(OC(C)=O)cc3)coc2cc1O	26.7	
COc1cc(OC)c2c(=O)c(-c3ccc(OC)c(OC)c3)coc2c1	22.3	
COc1cc(OC)c2c(=O)c(-c3ccc(Cl)cc3)coc2c1	71.3	

From ChEMBL document CHEMBL2021909, “Isoflavones inhibit the clonogenicity of human colon cancer cells” (2012)
